According to US20170182087A1, “MAIN CHAIN POLYAMINES” (priority 2014, published 2017):

tested on: human renal proximal tubule epithelial cells (RPTEC); test: Cytotoxicity Assay, RPTEC Cells; type: cell-based
Method: Cells were plated at 3,000 cells/well (RPTEC) in 96-well plates and were incubated overnight at 37° C. The compounds were added to the wells, and the cells were incubated for 4 days. Alomar Blue was added to one set of plates and incubated for 4 hours. The plates were read when the compound was added (time zero) and at the end of the study. Fluorescence was read using 530 nm (excitation) and 590 nm (emission) according to the manufacturer's instructions.

| Substance | Cytotoxicity (Kidney Epithelial IC50) |
| --- | --- |
| Poly(1,3-bis(1-pentyl-piperidin-4-yl)propane [4,4′-Trimethylenedipiperidine/Glutaraldehyde <10K] | 331 µg/mL |
| Poly(1,3-bis(1-pentyl-piperidin-4-yl)propane [Poly(4,4′-Trimethylenedipiperidine/Glutaraldehyde (1:1)), >1] | 2 µg/mL |
| Poly(1,3-bis(1,5-dimethybenzene)piperidin-4-yl)propane) | 1.5 µg/mL |
| Poly(1,3-bis(1-pentyl-piperidin-4-yl)propane [4,4′-Trimethylenedipiperidine/Glutaraldehyde (1:2.5) <10K] | 2 µg/mL |
| Poly((1,1′-dipentyl)-4,4-dipiperidine) [4,4′-dipiperidine/Glutaraldehyde <10K] | 1.5 µg/mL |
| Poly((1,1′-dipentyl)-4,4-dipiperidine) [Poly(1:1 Dipiperidine:Glutaraldehyde); <10K molecular weight] | 2 µg/mL |
| Poly(1,3-bis(1-pentyl-piperidin-4-yl)propane [4,4′-Trimethylenedipiperidine/Glutaraldehyde (1:3.5) <10K] | 2 µg/mL |
| Poly(1,3-bis(1-pentyl-piperidin-4-yl)propane [4,4′-Trimethylenedipiperidine/Glutaraldehyde >10K] | 1.5 µg/mL |
| Poly(1,3-bis(1-pentyl-piperidin-4-yl)propane [Poly(4,4′-Trimethylenedipiperidine/Glutaraldehyde (1:1)), <1] | 2 µg/mL |
| Poly(1,3-bis(1-pentyl-piperidin-4-yl)propane [4,4′-Trimethylenedipiperidine/Glutaraldehyde (1:1.5) <10K] | 4 µg/mL |
| Poly(1,3-bis N-(1,4-dimethybenzene)piperidin-4-yl)propane) | 1.5 µg/mL |
| Poly(1,3-bis(1-pentyl-piperidin-4-yl)propane [4,4′-Trimethylenedipiperidine/Glutaraldehyde (1:1.5) >10K] | 5 µg/mL |
